In patent US20240228460A1, “PROTEASE INHIBITORS AND METHODS OF MAKING SAME” (priority 2022, published 2024):
Like-named read-outs stand apart in the source and are kept apart here.

Experiments:
[1] = target: SARS-CoV-2 M^pro protease (Severe acute respiratory syndrome coronavirus 2 (2019-nCoV) (SARS-CoV-2), UniProt P0DTD1); assay: Fluorogenic enzymatic assay, SARS-CoV-2 Mpro inhibition; type: biochemical; conditions: quenched DABCYL/EDANS peptide substrate
cathepsin L = cathepsin L (Homo sapiens (Human), UniProt P07711); assay: Cathepsin L inhibition assay (Z-LR-AMC fluorogenic substrate); type: biochemical
Sequence of cathepsin L (P07711 114-333): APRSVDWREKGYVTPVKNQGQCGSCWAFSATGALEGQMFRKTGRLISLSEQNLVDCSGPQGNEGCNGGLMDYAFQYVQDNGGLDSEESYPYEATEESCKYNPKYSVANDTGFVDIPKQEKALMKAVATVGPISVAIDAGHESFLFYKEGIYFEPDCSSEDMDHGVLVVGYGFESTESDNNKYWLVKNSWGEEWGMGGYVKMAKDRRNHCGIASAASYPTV
Description: Assays to evaluate the inhibition of cathepsin L contained 25 pM cathepsin L (RD systems: 952-CY-010), 5 uM Z-LR-AMC fluorogenic peptide substrate, 100 nL of test compound in 100% DMSO, in a total of 10 uL of 20 mM KPO4, pH 6.0, 150 mM NaCl, 0.005% Tween20, 5 mM DTT in black low volume 384-well plates. The production of AMC (7-amino-4-methylcoumarin) was followed at 5 min intervals at 355 nm excitation, 460 nm emission in an Envision microplate reader (PerkinElmer). Reaction rates were determined by linear regression of the resulting progress curves. Rates were normalized to % inhibition, where 0% is equal to the rate in the presence of enzyme, and 100% is equal to the rate in the absence of enzyme. Nonlinear regression fits of the data to a one-site dose response curve were performed using XLFit (IDBS). […]

SARS-CoV-2 M^pro = SARS-CoV-2 M^pro (Severe acute respiratory syndrome coronavirus 2 (2019-nCoV) (SARS-CoV-2), UniProt P0DTD1); assay: biochemical; conditions: 20 nM M^pro, 10 uM substrate, 1 hr, HPLC product peak area; read-out: IC50 against SARS-CoV-2 M^pro, HPLC-confirmed
[2] = 25 pM cathepsin L, 5 uM Z-LR-AMC, pH 6.0, read-out: IC50 Cathepsin L

For O=C(NCC(NC(=O)c1cncc2sccc12)c1ccc2ccccc2c1)c1cc(O)cc(O)c1 (stereo not drawn) [(105)], the IC50 [1] was 61.3 µM.
Work on CC(C)C[C@H](NC(=O)OCc1ccccc1)C(=O)N[C@@H](CC1CCNC1=O)C(O)S(=O)(=O)O (stereo partly drawn) [GC-376, reference compound] yielded an IC50 (cathepsin L; positive control tested in parallel, read-out: IC50 cathepsin L (positive control)) of 0.002 µM.
Work on CC(=O)c1c(C)[nH]c(C(=O)N[C@H](CNC(=O)c2ccc(F)c3ccccc23)c2ccccc2)c1C [(108), (S)-4-acetyl-N-(2-(4-fluoro-1-naphthamido)-1-phenylethyl)-3,5-dimethyl-1H-pyrrole-2-carboxamide] yielded an IC50 [1] of 32.2 µM.
In the case of O=C(NCC(NC(=O)C1COc2ccccc21)c1ccccc1)c1cccc2cnsc12 (stereo not drawn) [(106)], the IC50 (SARS-CoV-2 M^pro) is reported as 28 µM, the IC50 [1] is reported as 8.9 µM and the IC50 (cathepsin L; [2]) is reported as 10.2 µM.
Cc1cc[nH]c(=O)c1C(=O)NCC(NC(=O)c1cncc2ccccc12)c1ccc2ccccc2c1 (racemic) [(101), N-{2-[(2-hydroxy-4-methylpyridin-3-yl)formamido]-1-(naphthalen-2-yl)ethyl}isoquinoline-4-carboxamide] was tested, and the IC50 (SARS-CoV-2 M^pro) was 5.4 µM, the IC50 [1] was 1.7 µM and the IC50 (cathepsin L; [2]) was > 100 µM.
For Cc1cc[nH]c(=O)c1C(=O)NC[C@H](NC(=O)c1cncc2ccccc12)c1ccc2ccccc2c1 (single isomer, unassigned) [(102)], the IC50 [1] was 1.6 µM and the IC50 (cathepsin L; [2]) was 47.8 µM.
O=C(NCC(NC(=O)c1cncc2[nH]ccc12)c1ccc2ccccc2c1)c1ccsc1 (stereo not drawn) [(107)] was tested, and the IC50 [1] was 19.2 µM.
With Cc1cc(C(=O)NC(CNC(=O)c2cccc3sncc23)c2ccc3ccccc3c2)cc(=O)[nH]1 (stereo not drawn) [(104)] the IC50 [1] was 47.8 µM.
In the case of Cc1cc[nH]c(=O)c1C(=O)NC[C@H](NC(=O)c1cncc2ccccc12)c1ccc2ccccc2c1 (single isomer, unassigned) [(103)], the IC50 [1] is reported as 71.2 µM and the IC50 (cathepsin L; [2]) is reported as 36.8 µM.
